Key:
[1] = Log P determination, octanol-water partition coefficient; assay type: physicochemical; conditions: read-out: Measured Log P
Description: Lipophilicity was assessed by measuring the octanol-water partition coefficient using the method of Barthel et al^18. Briefly, [^18F]11 (˜180 μCi in 25 μL ethanol) was diluted to a final volume of 100 μL using water to give the stock solution. Aliquots of stock solution (10 μL) were added to water (490 μL) and octan-1-ol (Aldrich anhydrous grade) (500 μL). The solutions were then shaken vigorously for 10 min then centrifuged (13201 g, 20° C., 30 min) Following centrifugation portions (200 μL) of the water and octanol layers were carefully removed and placed analyzed on a Cobra II Auto-Gamma counter (Packard Instruments, Meriden, Conn., USA) and compared. The octanol-water partition coefficient was obtained by dividing the octanol containing radioactivity by the water containing radioactivity. Log P was determined to be 1.61, as indicated in footnote c of Table 1 above.

[2] = In vivo biodistribution studies (Example 5); parameters: species or system C3H/hej mice; conditions: i.v., 2-60 min
Description: The stability of novel compound [^18F]11 and known compound [^125I]14 in plasma and liver was measured over time following administration in mice. [^18F]11 was injected intravenously into tumor-bearing mice and its tissue distribution was measured in selected tissues at 2, 15 and 60 min after injection. [^125I]14 was injected intravenously into non-tumour bearing mice and its tissue distribution was measured at selected time points from 2 to 60 minutes after injection. Furthermore, the in vivo metabolic stability of the radiotracer was determined from plasma and liver samples and, for [^18F]11, in urine samples.
The radiation-induced murine fibrosarcoma (RIF-1) tumour cells^20 were maintained in RPMI 1640 medium (Invitrogen Ltd, Paisley, UK) supplemented with 10% fetal calf serum (BioWhittaker Europe Ltd, Verviers, Belgium), 2 mM L-glutamine, 100 U/mL penicillin, 100 μg/mL streptomycin and 0.25 μg/mL fungizone (Gibco, UK) at 37° C. in a humidified incubator with 5% CO2. All animal work was done by licensed investigators in accordance with the United Kingdom's “Guidance on the Operation of Animals (Scientific Procedures) Act 1986” (HMSO, London, United Kingdom, 1990) and in full compliance with government regulations and guidelines on the welfare of animals in experimental neoplasia^21. Tumors were established in mice by subcutaneous injection of 5×10^5 cells on the back of male C3H/hej mice (Harlan, Bicester, Oxfordshire, UK). Tumour growth was monitored every two days using electronic callipers, and tumor volume estimated using the equation (π/6)×L×W×D (L=length, W=width and D=depth). Animals were selected for biodistribution studies of [^18F]11 when the tumors reached ˜100-150 mm^3; biodistribution of [^125I]14 was done in non-tumor-bearing mice.
Mice were injected intravenously via the lateral vein with 0.08-0.13 mL of radioactivity (˜0.37 MBq of [^125I]14 or 3.7 MBq of [^18F]11) dissolved in phosphate buffered saline. At selected times after injection (2-60 min) mice were sacrificed by exsanguination via cardiac puncture under general anesthesia (isofluorane inhalation). Aliquots of heparinised blood were rapidly centrifuged (2000 g for 5 minutes) to obtain plasma. The radioactivity contained in tissues was determined by gamma-counting on a Cobra II Auto-Gamma counter (Packard Instruments, Meriden, Conn., USA) and expressed as a percentage of injected dose per gram of tissue (% ID/g). A minimum of three mice was used for each time point. All animals were treatment-naïve.

PEO1 xenograft = test: In vivo [^18F]11 biodistribution and PET imaging, PEO1 xenograft; parameters: species or system mice; conditions: for 60 min biodistribution, Bone / 60 min biodistribution, Kidney / 60 min biodistribution, L. Intestine / 60 min biodistribution, Liver / 60 min biodistribution, Lung / 60 min biodistribution, Muscle / 60 min biodistribution, S. Intestine / 60 min biodistribution, Spleen / 60 min biodistribution, Tumour: PEO1
Source text: In vivo tumour models were established by subcutaneous injection of PEO1/4 (10×10^6 cells, with v/v matrigel, BD Biosciences, Oxford, UK), RIF-1 (5×10^5 cells) and LNM35 (1×10^6 cells) on the back of 6-8 weeks old female nu/nu-BALB/c or male C3H/hej mice (Harlan, Bicester, Oxfordshire, UK). Tumour growth was monitored every two days using electronic callipers, and tumour volume estimated using (π/6)×L×W×D (L=length, W=width and D=depth). All animal work was done by licensed investigators in accordance with the United Kingdom's “Guidance on the Operation of Animals (Scientific Procedures) Act 1986” (HMSO, London, United Kingdom, 1990) and in full compliance with government regulations and guidelines on the welfare of animals in experimental neoplasia.
For biodistribution studies, tumour-bearing mice were treated with 10 mg/kg cisplatin or vehicle for 24 h, anesthetized with isofluorane/O2/N2O and injected i.v. in the lateral tail vein with ˜100 μCi [^18F]11 for the indicated time. The different tissues were removed, weighted and placed in counting tubes for immediate Fluorine-18 radioactivity counting.
Tumour-bearing mice treated with Cisplatin (10 mg/kg for 24 h) or vehicle were scanned on a dedicated small animal PET scanner (quad-HIDAC; Oxford Positron Systems, Weston-on-the-Green, United Kingdom). Anesthetized animals were placed within a thermostatically controlled bed and positioned prone within the scanner. The bed was calibrated to provide a mouse rectal temperature of ˜37° C. A bolus injection of [^18F]11 (˜100 μCi) was given intravenously (i.v.) via the tail vein cannula and scanning commenced. Dynamic emission scans were acquired in list-mode format over 60 minutes. The acquired data were then sorted into 0.5-mm sinogram bins and 19 time frames (0.5×0.5×0.5 mm voxels; 4×15, 4×60, and 11×300 seconds) for image reconstruction, which was done by filtered back projection using a two-dimensional Hamming filter (cutoff 0.6). The image data-sets obtained were transferred to a SUN workstation (Ultra 10; SUN Microsystems, Santa Clara, Calif.) and visualized using the Analyze software (version 6.0; Biomedical Imaging Resource, Mayo Clinic, Rochester, Minn.). Cumulative images of the dynamic data composed of 0 to 1 minute after injection and 30 to 60 minutes after injection were used for visualization of radiotracer uptake and to define the regions of interest (ROI). The count densities were averaged for each ROI at each of the 19 time points to obtain a time versus radioactivity curve (TAC) for the ROIs. Tumour TAC was normalized to that of heart at each of the time points to obtain the normalized uptake value (NUV). The [^18F]9 data from […] were used as internal input function for normalizing tumour data. […] FRT is a useful variable in that it indicates the proportion of radiotracer delivered to the tumour that is retained. It therefore normalizes tumor [^18F]9 uptake to delivery.

## O=C1C(=O)N(Cc2cn(CC[18F])nn2)c2ccc(S(=O)(=O)N3CCC[C@H]3COc3ccc(F)cc3F)cc21 [[^18F]11, (S)-1-((1-(2-Fluoroethyl)-1H-[1,2,3]-triazol-4-yl)methyl)-5-(2(2,4-difluorophenoxymethyl)-pyrrolidine-1-sulfonyl)isatin]
[1]
  logP at 10 min: 1.61
[2]; RIF-1 tumor-bearing mice
  Bone uptake: low
  uptake in untreated tumors, heart and brain: low
[2]; mice
  tissue distribution and elimination: distributed rapidly to tissues and was also rapidly eliminated
PEO1 xenograft; CDDP treated
  60 min biodistribution, Bone: 1.51 ± 1.02
  60 min biodistribution, Kidney: 8.53 ± 3.64
  60 min biodistribution, L. Intestine: 3.24 ± 1.81
  60 min biodistribution, Liver: 8.20 ± 2.09
  60 min biodistribution, Lung: 4.90 ± 1.05
  60 min biodistribution, Muscle: 1.34 ± 0.28
  60 min biodistribution, S. Intestine: 9.09 ± 5.82
  60 min biodistribution, Spleen: 1.65 ± 0.22
  60 min biodistribution, Tumour: 2.96 ± 1.25
PEO1 xenograft; Control
  60 min biodistribution, Bone: 0.64 ± 0.09
  60 min biodistribution, Kidney: 6.59 ± 1.94
  60 min biodistribution, L. Intestine: 1.81 ± 0.37
  60 min biodistribution, Liver: 9.98 ± 2.51
  60 min biodistribution, Lung: 4.25 ± 0.57
  60 min biodistribution, Muscle: 0.98 ± 0.14
  60 min biodistribution, S. Intestine: 4.27 ± 0.78
  60 min biodistribution, Spleen: 1.19 ± 0.26
  60 min biodistribution, Tumour: 1.37 ± 0.25
PEO1 xenograft; CDDP-treated mouse, PEO1 xenograft, 30-60 min
  PET image: uptake in the tumour: significant uptake
PEO1 xenograft; PEO1 xenografts, 60 min
  uptake in the tumour of CDDP treated vs control mice: significant increased uptake

Reference: patent publication US8961930B2, “Isatin derivatives for use as in vivo imaging agents” (Imperial Innovations Limited, priority 2008, dated 2015)
